In US9951366B2, “Cell-free protein synthesis method and device using a eukaryotic cell lysate in the presence of a caspase inhibitor and the use of a caspase inhibitor for increasing the yield and/or the stability of the synthesized proteins in such a method” (Fraunhofer-Gesellschaft zur Foerderung der angewandten …, priority 2013, dated 2018):
Peptide text beside a SMILES is read from it. * marks the point of attachment. Cbz = O=C(OCc1ccccc1)*; CH2F = FC*

Columns and labels:
[1] = test system: Mel-hEGFR-eYFP in Sf21 insect cell lysates; test: Stability of de novo synthesized Mel-hEGFR-eYFP in batch mode (SDS-PAGE, autoradiography); assay type: biochemical, Spodoptera frugiperda; conditions: inhibitor 30 μM
Excerpt: The positive influence of the caspase inhibitor on the stability of cell-free synthesized proteins is shown here on the basis of the expression of the EGF receptor, the protein being a human, high molecular weight transmembrane protein (Epidermal Growth Factor Receptor) with intrinsic tyrosine kinase activity. The coding sequence of the EGF receptor was fused N-terminally with a melittin signal sequence (Mel) and C-terminally with yellow fluorescent protein (eYFP) and cloned into the vector pIX3.0 (Qiagen). The model protein is denoted below as Mel-hEGFR-eYFP (=163 kDa). The melittin signal sequence enables translocation of the membrane protein into the microsomes of the eukaryotic cell extract and subsequently embedding into the membrane of the microsomes. Mel-hEGFR-eYFP has nine potential N-glycosylation sites and therefore, due to the translocation of the target protein, N-glycosylation of the target protein is also enabled in the cell-free system. […] The translation reaction was carried out in the absence and the presence of a caspase inhibitor (Z-VAD-FMK, Promega, 30 μM) and a protease inhibitor mixture (“Complete Protease Inhibitor Cocktail”, Roche), respectively, and stopped at the indicated incubation times (1.5 h, 5 h and 24 h) by freezing the translation reaction in liquid nitrogen. […]

[2] = test system: cell-free eukaryotic translation system on the basis of a cell extract from Spodoptera frugiperda (Sf21) insect cells; test: Cell-free expression of membrane proteins (ETB, Hb-EGF, bacteriorhodopsin), protein yield by scintillation measurement; assay type: biochemical
Excerpt: Here, the influence of the caspase inhibitor on the expression of different membrane proteins in the eukaryotic translation system was investigated more closely. For this purpose, three different model proteins were selected: the endothelin-B receptor (ETB) is a G-protein coupled receptor with seven transmembrane domains which was used cloned into the vector pIX3.0 (Qiagen) for the expression. Furthermore, the type I transmembrane protein heparin-binding EGF-like growth factor (Hb-EGF), N-terminally fused to the melittin signal sequence and C-terminally fused to eYFP, present in the vector pIX3.0, was used for the expression. In addition, the expression of the membrane protein bacteriorhodopsin which also has seven transmembrane domains and was present in the vector pMA (GeneArt) was investigated. The three proteins were each expressed in the batch and dialysis systems without (−) and with (+) the addition of the caspase inhibitor (CI) in the presence of ^14C-leucine for 48 h (27° C.; 600 rpm, Eppendorf Thermomixer Comfort) and analyzed as in example 1. […] The expression of each of the three membrane proteins (ETB, 49.3 kDa; Hb-EGF, 51 kDa; bacteriorhodopsin, 26.9 kDa) was able to be increased in the dialysis system (comparison of the dialysis batches +CI and −CI) with the addition of the caspase inhibitor by approximately 100% (FIG. 2).

[3] = dialysis system 48 h, +CI vs −CI

COC(=O)C[C@H](NC(=O)[C@H](C)NC(=O)[C@@H](NC(=O)OCc1ccccc1)C(C)C)C(=O)CF [Z-VAD-FMK, benzyloxycarbonyl-Val-Ala-Asp-[O-methyl]-fluoromethylketone] (Cbz-Val-Ala-Asp(OMe)-CH2F)
Mel-hEGFR-eYFP integrity in the autoradiograph ([1]; after 24 h incubation time): detectable in an intact form | proteolytic decomposition of Mel-hEGFR-eYFP (autoradiograph) ([1]; compared with no inhibitor, 5 h): reduced signs of a proteolytic decomposition | increase of expression of ETB [2, 3]: approximately 100% | increase of expression of Hb-EGF [2, 3]: approximately 100% | increase of expression of bacteriorhodopsin [2, 3]: approximately 100% | increase of maximum achievable yields of membrane protein, average ([2]; dialysis system, addition of caspase inhibitor): approximately 100%
